Laboratory results published in patent US5510459A, “Glucagon antagonists” (ZymoGenetics, Inc., priority 1992, dated 1996).
Ends that are not written are not given here.

Assays:
[1] = biological target: T1, glucagon receptor (rat liver membrane adenylate cyclase) (Rattus norvegicus, UniProt P30082); assay: Adenylate cyclase activity assay with synthetic peptide glucagon analogs (Example 6); format: biochemical; conditions: synthetic peptides; in the presence of 20 nm glucagon
T1 construct: A. Preparation of Rat Liver Membranes; from tissue; host or cells: rat liver (Sprague-Dawley) plasma membranes
Experimental: The adenylate cyclase assay was carried out byfirst adding 5 μl of sample (e.g. yeast broth) containingpotential inhibitors at micromolar concentrations to eachwell of a 96-well microtiter plate. […] Fifty microliters of the A+Bsolution was added to each "no glucagon" control well.Glucagon was added from the "G" solution to the remainingA+B solution to a concentration of 1×10^-8 M (thisresults in a final assay concentration of 5×10^-9).Fifty microliters of the A+B+glucagon solution was addedto each well, excluding the "no glucagon" controls. Themembrane preparation was diluted to approximately 2 mg/mlprotein with water. The reaction was started by theaddition of 45 μl of diluted membrane to each well, inorder. The assays were incubated for 12 minutes at roomtemperature, and were stopped by the addition of 100 μl ofStop Mix to each well in the same order that the dilutedmembrane was added. The assay mixtures were clarified bycentrifugation, and the assays were stored at 4° C.
Cyclic AMP concentrations were determined usingan Amersham Scintillation Proximity Assay Kit (Amersham,Arlington Heights, Ill.). Briefly, 10 μl from eachadenylate cyclase reaction was added to individual betaplate wells. Each sample was diluted with 65 μl of 50 mM Na Acetate. Cyclic AMP standards were prepared at 0.0,1.6 and 6.4×10^-9 M or may be prepared from the"non-standards" supplied with Amersham kit.Triplicate standards of 75 μl of each standard were addedto individual beta plate wells. Nonspecific binding (NSB)controls were prepared by adding 150 μl of 50 mM NaAcetate to triplicate beta plate wells. […] Seventy-fivemicroliters of diluted anti-rabbit SPA reagent was thenadded to each well, and the plates were sealed andincubated, with shaking, overnight at room temperature.The plates were counted for one minute per sample in abeta-plate counter. […] The percent response for thestandards and samples was determined using the formula: […]

[2] = biological target: T2, glucagon receptor (liver plasma membranes) (Rattus norvegicus, UniProt P30082); assay: Glucagon binding assay (125I-glucagon, liver plasma membranes); conditions: 30 minute incubation at 30° C., peptide 1.5-800 ng/ml
T2 construct: 25 μl of freshly thawed plasmamembrane containing 10-20 μg of plasma membrane protein; from tissue
Experimental: The ability of the synthetic peptides to inhibitglucagon binding was determined by measuring the bindingof radiolabeled glucagon in the presence of syntheticpeptide relative to the binding of radiolabeled glucagonin the absence of the synthetic peptides. The syntheticpeptides were dissolved in 10% acetic acid and lyophilizedbefore use. Glucagon was dissolved in 10% acetic acid andlyophilized in 25-μg portions for use as standards. ^125 I-glucagonwith a specific activity of 11.1 kBq/ng wasobtained from Novo Biolabs (Novo Alle, Bagsvaerd, Denmark)and stored at -18° C. Plasma membranes were prepared aspreviously described, except protein detemination wascarried out using a Bio-Rad Protein Assay (BioRad,Richmond, Calif.) according to the manufacturer's directionsusing bovine serum albumin as a standard. Milli-Q gradewater was used throughout .
The lyophilized glucagon and synthetic peptideswere dissolved in 100 μl of 0.05M HCl, left for 3 minutes. The glucagon was diluted with buffer (2.5% humanserum albumin Grade 5, Sigma Chemical Co., St. Louis, Mo.! in 0.1M HEPES, 0.15M NaCl, pH 7.4) to 0.2-200ng/ml.The synthetic peptides were diluted with the same bufferto 1.5-800 ng/ml. […] The filters were counted in a gamma counter.The binding of des-His^1 -(Ala^2,11 -Glu^21)glucagonamide wasshown to be 84%±9.3.

[3] = biological target: T1, glucagon receptor (rat liver membrane adenylate cyclase); assay: Glucagon antagonist screening assay: adenylate cyclase reaction and cAMP assay with yeast culture broths; format: biochemical; conditions: no exogenous glucagon
Description: Young female Sprague-Dawley rats were used forthe preparation of liver membranes using the methodessentially described by Neville (ibid.) and modified byPohl et al. (ibid). Ten to 15 rats yielding 60-100 grams of liver were processed per batch. After the rats wereeuthanized by cervical dislocation, their livers weresurgically removed and transferred, as quickly aspossible, to an iced beaker. Scissors were used to mincethe tissue into pieces approximately 3-6 mm in size. Anyconnective tissue that was present was removed.
The minced tissue was suspended in ice cold 1 mMsodium bicarbonate at a concentration of approximately300 g/l. This suspension was processed in batches in atissue homogenizer with eight strokes of the loose pestle.The homogenate was mixed with additional ice cold 1 mMsodium bicarbonate to yield a final concentration of about40-80 g/l. […]
After centrifugation, as much of the supernatantas possible was carefully decanted and discarded, and thepellets were gently resuspended in the remainingsupernatant with three strokes of the loose pestle in aclean tissue homogenizer. […] After thorough mixing, thesucrose concentration was measured with a refractometerand adjusted to between 43.9% and 44.1% sucrose(corresponding to a refractive index between 1.4076 and1.4080) with either 69% sucrose or water. […]

T1 sequence (P30082 27-485): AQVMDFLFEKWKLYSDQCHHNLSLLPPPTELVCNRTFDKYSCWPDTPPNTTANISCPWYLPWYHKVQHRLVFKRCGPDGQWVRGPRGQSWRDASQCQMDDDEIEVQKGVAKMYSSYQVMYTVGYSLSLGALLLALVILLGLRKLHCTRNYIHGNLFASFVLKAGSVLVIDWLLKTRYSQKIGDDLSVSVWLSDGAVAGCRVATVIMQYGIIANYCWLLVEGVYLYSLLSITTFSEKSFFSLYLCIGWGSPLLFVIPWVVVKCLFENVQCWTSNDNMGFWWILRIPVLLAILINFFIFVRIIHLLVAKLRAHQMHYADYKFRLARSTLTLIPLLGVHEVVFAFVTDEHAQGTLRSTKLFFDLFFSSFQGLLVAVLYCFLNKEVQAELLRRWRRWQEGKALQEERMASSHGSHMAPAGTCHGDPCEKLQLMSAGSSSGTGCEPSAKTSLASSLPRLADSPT
T2 sequence (P30082 27-485): as above

Compound	inhibition coefficient (I/A50): ratio of inhibitor to agonist concentration wherein the response is reduced to one-half [1]	also measured
CSCC[C@H](NC(=O)[C@H](CC(C)C)NC(=O)[C@H](Cc1c[nH]c2ccccc12)NC(=O)[C@H](CCC(N)=O)NC(=O)[C@@H](NC(=O)[C@H](Cc1ccccc1)NC(=O)[C@H](CC(=O)O)NC(=O)[C@H](CCC(N)=O)NC(=O)[C@H](C)NC(=O)[C@H](CCCNC(=N)N)NC(=O)[C@H](CCCNC(=N)N)NC(=O)[C@H](CO)NC(=O)[C@H](CC(=O)O)NC(=O)[C@H](CC(C)C)NC(=O)[C@H](Cc1ccc(O)cc1)NC(=O)[C@H](CCCCN)NC(=O)[C@H](CO)NC(=O)[C@H](Cc1ccc(O)cc1)NC(=O)[C@H](CC(=O)O)NC(=O)[C@H](CO)NC(=O)[C@@H](NC(=O)[C@H](Cc1ccccc1)NC(=O)[C@@H](NC(=O)CNC(=O)[C@H](CCC(N)=O)NC(=O)[C@@H](N)CO)[C@@H](C)O)[C@@H](C)O)C(C)C)C(=O)N[C@@H](CC(N)=O)C(=O)N[C@@H](CO)C(=O)O [F73, des-His^1 - Ser^29 !glucagon]	30	
AQGTFTSDYAKYLDSRRAQEFVQWLMNT-NH2 [des-His^1 -(Ala^2,11 -Glu^21)glucagon amide]		binding (inhibition of radiolabeled glucagon binding) [2]: 84%±9.3
DAQGTFISDYSKYLDSRRAQDFVQWLMNT [BB65, Asp^1 -Ala^2 -Ile^7 !glucagon]	25	
SQSTFTSDYSKYLDSRRAQDFVQWLMNT [G56, des-His^1 - Ser^4 !glucagon]	25	
glucagon [ZB210]		stimulation of adenylate cyclase activity by culture broth in the absence of exogenous glucagon [3]: stimulation of adenylate cyclase
